# Results from patent publication US20090318468A1, “PYRAZOLE COMPOUNDS 436” (AstraZeneca AB, priority 2008, published 2009).
# Target: T1, human cytochrome P450 (CYP) 2C19 (Homo sapiens, UniProt P33261)
# T1 construct: made in house; host or cells: yeast (microsomal fraction)
# Assay: Cytochrome P450 Inhibition Assay, CYP 2C19
# Type: in vitro ADME
# Settings: expected IC50 range of known inhibitor (positive control); read-out: IC50 range (μM), CYP 2C19
# Description: Cytochrome P450 Inhibition Assay
# The inhibitory potential (IC50) of test compounds against 5 human cytochrome P450 (CYP) isoforms (1A2, 2C9, 2C19, 3A4 and 2D6) was assessed using an automated fluorescent end point in vitro assay modified from Crespi (Crespi and Stresser, J Pharmacol Toxicol Methods 2000, 44: 325-331). Microsomal subcellular fractions prepared from Yeast cell lines expressing each human CYP isoform were used as an enzyme source in this assay. The activity of the 5 major human CYPs was determined from the biotransformation of a number of coumarin substrates to fluorescent metabolites, in the presence of NADPH. […] Stock solutions of each CYP, with its respective substrate, were prepared in phosphate buffer pH 7.4 (see Table 1) and 178 μl was added to the well of a black solid, flat bottom, 300 μl 96 well microtitre plate (Corning Costar). […] After pre-incubating at 37° C. for 5 min the reactions were started with addition of NADPH (20 μl, concentration shown in Table 1). The final solvent content in each incubation was <=2% (1% from the test compound and a maximum of 1% from the substrate). The appropriate solvent controls and substrate blanks were included in each experiment to assess control activity and identify any inherent fluorescence due to the test compounds. In addition, known inhibitors of each CYP were included as positive controls (see Table 3 for inhibitor concentrations and expected IC50 ranges). The reactions were stopped at defined timepoints (see Table 1) by quenching with 100 μl of solvent (acetonitrile:0.5M Tris buffer 80:20 v/v). The plates were read on a fluorimeter (Spectrafluor Plus) at the appropriate excitation and emission wavelengths (listed in Table 2) and the percent activity, corrected for control, was plotted against the test compound concentration.
# T1 sequence (P33261 whole entry): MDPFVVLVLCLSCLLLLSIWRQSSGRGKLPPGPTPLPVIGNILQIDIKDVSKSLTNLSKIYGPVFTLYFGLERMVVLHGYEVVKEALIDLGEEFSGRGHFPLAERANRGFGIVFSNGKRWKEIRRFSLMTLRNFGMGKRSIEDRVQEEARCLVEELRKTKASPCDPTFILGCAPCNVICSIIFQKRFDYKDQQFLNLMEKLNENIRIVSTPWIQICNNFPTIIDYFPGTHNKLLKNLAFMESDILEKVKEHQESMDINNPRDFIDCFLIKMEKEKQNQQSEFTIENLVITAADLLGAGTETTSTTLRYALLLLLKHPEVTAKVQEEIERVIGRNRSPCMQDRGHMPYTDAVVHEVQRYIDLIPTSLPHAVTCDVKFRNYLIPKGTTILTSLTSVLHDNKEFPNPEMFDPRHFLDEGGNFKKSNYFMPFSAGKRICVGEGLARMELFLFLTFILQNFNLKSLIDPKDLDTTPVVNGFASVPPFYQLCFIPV
compound,measurement,value
"COc1ccc2[nH]c([S+]([O-])Cc3ncc(C)c(OC)c3C)nc2c1 (stereo not shown) [Omeprazole, reference compound]",IC50,1.5 to 4.6 µM
